Structures are written as SMILES. Structures can show the parent of a compound that is named as a salt.

The target of this test is CK2A1 (CK2α/β) (Homo sapiens, UniProt P68400). As to the kind of experiment: CK2 kinase assay, CK2A1 (CK2α/β). It is filed as biochemical. Conditions: Table A; read-out: CK2A1 (CK2α/β) (IC50).
Chain of CK2A1 (CK2α/β) (P68400 whole entry, species assumed): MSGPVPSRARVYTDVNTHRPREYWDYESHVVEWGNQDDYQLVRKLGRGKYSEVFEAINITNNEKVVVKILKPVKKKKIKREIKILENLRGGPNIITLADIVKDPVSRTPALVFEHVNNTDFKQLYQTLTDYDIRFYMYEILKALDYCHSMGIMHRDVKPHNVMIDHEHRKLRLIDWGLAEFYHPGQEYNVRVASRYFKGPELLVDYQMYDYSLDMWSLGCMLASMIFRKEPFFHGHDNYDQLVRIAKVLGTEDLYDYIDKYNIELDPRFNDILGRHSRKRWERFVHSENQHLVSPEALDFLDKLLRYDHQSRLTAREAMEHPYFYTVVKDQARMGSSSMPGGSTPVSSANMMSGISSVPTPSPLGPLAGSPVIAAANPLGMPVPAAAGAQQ
Chain of CK2A1 (CK2α/β) (P67870 whole entry partner, species assumed): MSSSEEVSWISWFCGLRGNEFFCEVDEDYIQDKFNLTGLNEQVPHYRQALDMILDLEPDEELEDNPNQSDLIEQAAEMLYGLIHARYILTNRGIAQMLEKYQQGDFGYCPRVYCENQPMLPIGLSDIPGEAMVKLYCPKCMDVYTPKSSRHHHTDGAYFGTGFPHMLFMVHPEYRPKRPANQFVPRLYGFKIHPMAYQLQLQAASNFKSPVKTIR
Consider `CC[C@H]1CN(c2cc(C#N)cc(Nc3nc(NC4CC4)c4ncc(C#N)n4n3)c2Cl)CC[C@H]1NC(=O)OC` (racemic) [Example 296, (+/−) methyl ((3S,4R)-1-(2-chloro-5-cyano-3-((7-cyano-4-(cyclopropylamino)imidazo[2,1-f][1,2,4]triazin-2-yl)amino)phenyl)-3-ethyl-4-piperidinyl)carbamate], for which the IC50 is 0.94 nM.

`COC(=O)N[C@H]1CN(C2CN(c3cc(C#N)cc(Nc4nc(NC5CC5)c5ncc(C#N)n5n4)c3Cl)C2)C[C@@H]1OC` (racemic) [Example 297, (+/−) methyl ((3S,4S)-1-(1-(2-chloro-5-cyano-3-((7-cyano-4-(cyclopropylamino)imidazo[2,1-f][1,2,4]triazin-2-yl)amino)phenyl)-3-azetidinyl)-4-methoxy-3-pyrrolidinyl)carbamate]: the IC50 turned out to be 3.05 nM.

For the molecule `N#Cc1cc(Nc2nc(NC3CC3)c3ncc(C#N)n3n2)c(Cl)c(N2CCOC(C(=O)N3CCOCC3)C2)c1` (racemic) [Example 300, (+/−)2-((2-chloro-5-cyano-3-(2-(morpholine-4-carbonyl)morpholino)phenyl)amino)-4-(cyclopropylamino)imidazo[2,1-J][1,2,4]triazine-7-carbonitrile], the IC50 was 1.62 nM.

For `N#Cc1cc(Nc2nc(NC3CC3)c3ncc(C#N)n3n2)c(Cl)c(N2CC[C@@H](NC3COC3)[C@H](O)C2)c1` (racemic) [Example 301, (+/−)2-((2-chloro-5-cyano-3-((3R,4R)-3-hydroxy-4-(oxetan-3-ylamino)piperidin-1-yl)phenyl)amino)-4-(cyclopropylamino)imidazo[2,1-f][1,2,4]triazine-7-carbonitrile, HCl], the IC50 turned out to be 0.72 nM.

As to `CO[C@@H]1CN(c2cc(C#N)cc(Nc3nc(NC4CC4)c4ncc(C#N)n4n3)c2Cl)C[C@H]1O` (racemic) [Example 305, (+/−)-2-((2-chloro-5-cyano-3-((3R,4R)-3-hydroxy-4-methoxypyrrolidin-1-yl)phenyl)amino)-4-(cyclopropylamino)imidazo[2,1-f][1,2,4]triazine-7-carbonitrile, HCl], the IC50 amounted to 0.65 nM.

In the case of `N#Cc1cc(Nc2nc(NC3CC3)c3ncc(C#N)n3n2)c(Cl)c(N2CC[C@@H](N3CCOCC3)[C@H](O)C2)c1` (racemic) [Example 306, (+/−)-2-((2-chloro-5-cyano-3-((3R,4R)-3-hydroxy-4-morpholinopiperidin-1-yl)phenyl)amino)-4-(cyclopropylamino)imidazo[2,1-f][1,2,4]triazine-7-carbonitrile], the IC50 worked out at 1.29 nM.

As to `N#Cc1cc(Nc2nc(NC3CC3)c3ncc(C#N)n3n2)c(Cl)c(N2CC[C@H]3NC(=O)CO[C@@H]3C2)c1` (racemic) [Example 310, (+/−)-2-((2-chloro-5-cyano-3-((4aR,8aR)-2-oxohexahydro-1H-pyrido[3,4-b][1,4]oxazin-6(7H)-yl)phenyl)amino)-4-(cyclopropylamino)imidazo[2,1-f][1,2,4]triazine-7-carbonitrile, 2HCl], the IC50 came to 2.87 nM.

In the case of `N#Cc1cc(Nc2nc(NC3CC3)c3ncc(C#N)n3n2)c(Cl)c(N2CCN(C3COC3)C(CF)C2)c1` (racemic) [Example 312, (+/−)2-((2-chloro-5-cyano-3-(3-(fluoromethyl)-4-(oxetan-3-yl)piperazin-1-yl)phenyl)amino)-4-(cyclopropylamino)imidazo[2,1-f][1,2,4]triazine-7-carbonitrile], the IC50 turned out to be 0.37 nM.

Consider `CCNc1nc(Nc2cc(C#N)cc(N3CC[C@@H](NC(=O)OC)[C@H](OC(=O)C(C)OP(=O)(O)O)C3)c2Cl)nn2c(C#N)cnc12` (mixture of isomers) [Example 339, (+/−)-(3R,4R)-1-(2-chloro-5-cyano-3-((7-cyano-4-(ethylamino)imidazo[2,1-f][1,2,4]triazin-2-yl)amino)phenyl)-4-((methoxycarbonyl)amino)piperidin-3-yl 2-(phosphonooxy)propanoate], for which the IC50 came to 0.47 nM.

With `CCNc1nc(Nc2cc(C#N)cc(N3CCOC(C(C)(C)O)C3)c2Cl)nn2c(C#N)cnc12` (racemic) [Example 361, (+/−) 2-((2-chloro-5-cyano-3-(2-(1-hydroxy-1-methylethyl)-4-morpholinyl)phenyl)amino)-4-(ethylamino)imidazo[2,1-f][1,2,4]triazine-7-carbonitrile], the IC50 is 0.85 nM.

For `CCNc1nc(Nc2cc(C#N)cc(N3CCC(NC)C3)c2Cl)nn2c(C#N)cnc12` (racemic) [Example 362, (+/−) 2-((2-chloro-5-cyano-3-(3-(methylamino)-1-pyrrolidinyl)phenyl)amino)-4-(ethylamino)imidazo[2,1-f][1,2,4]triazine-7-carbonitrile], the IC50 was 0.84 nM.

Regarding `CCNc1nc(Nc2cc(C#N)cc(N3CC[C@H]4NC(=O)CO[C@@H]4C3)c2Cl)nn2c(C#N)cnc12` (racemic) [Example 370, (+/−)-2-((2-chloro-5-cyano-3-((4aR,8aR)-2-oxohexahydro-1H-pyrido[3,4-b][1,4]oxazin-6(7H)-yl)phenyl)amino)-4-(ethylamino)imidazo[2,1-f][1,2,4]triazine-7-carbonitrile], the IC50 is 0.35 nM.

As to `CCNc1nc(Nc2cc(C#N)cc(N3CC[C@H]4NCCO[C@@H]4C3)c2Cl)nn2c(C#N)cnc12` (racemic) [Example 371, (+/−)-2-((2-chloro-5-cyano-3-((4aR,8aR)-hexahydro-1H-pyrido[3,4-b][1,4]oxazin-6(7H)-yl)phenyl)amino)-4-(ethylamino)imidazo[2,1-f][1,2,4]triazine-7-carbonitrile], the IC50 was 3.61 nM.

`CCNc1nc(Nc2cc(C#N)cc(N3CC[C@@H]4[C@@H](C3)OCCN4C(=O)OC)c2Cl)nn2c(C#N)cnc12` (racemic) [Example 372, (+/−)-(4aR,8aR)-methyl 6-(2-chloro-5-cyano-3-((7-cyano-4-(ethylamino)imidazo[2,1-f][1,2,4]triazin-2-yl)amino)phenyl)octahydro-1H-pyrido[3,4-b][1,4]oxazine-1-carboxylate]: the IC50 worked out at 0.94 nM.

For `CCNc1nc(Nc2cc(C#N)cc(N3CC[C@@H]4[C@@H](C3)OCCN4C)c2Cl)nn2c(C#N)cnc12` (racemic) [Example 373, (+/−)-2-((2-chloro-5-cyano-3-((4aR,8 aR)-1-methylhexahydro-1H-pyrido[3,4-b][1,4]oxazin-6(7H)-yl)phenyl)amino)-4-(ethylamino)imidazo[2,1-f][1,2,4]triazine-7-carbonitrile], the IC50 is 0.99 nM.

As for `N#Cc1cc(Nc2nc(NC3CC3)c3ncc(C#N)n3n2)c(Cl)c(C2CCN(CC(O)CF)CC2)c1` (racemic) [Example 380, (+/−)-2-((2-chloro-5-cyano-3-(1-(3-fluoro-2-hydroxypropyl)-4-piperidinyl)phenyl)amino)-4-(cyclopropylamino)imidazo[2,1-f][1,2,4]triazine-7-carbonitrile], the IC50 was 0.65 nM.

On to `CCNc1nc(Nc2cc(C(N)=O)cc(N3CC[C@H](NC(=O)OC)[C@@H](O)C3)c2Cl)nn2c(C#N)cnc12` (racemic) [Example 389, (+/−)-methyl ((3R,4R)-1-(5-carbamoyl-2-chloro-3-((7-cyano-4-(ethylamino)imidazo[2,1-f][1,2,4]triazin-2-yl)amino)phenyl)-3-hydroxypiperidin-4-yl)carbamate], for which the IC50 worked out at 3.39 nM.

Consider `N#Cc1cc(Nc2nc(NC3CC3)c3ncc(C#N)n3n2)c(Cl)c(OC2CCN(C3COC3)C2)c1` (racemic) [Example 426, (+/−)-2-((2-chloro-5-cyano-3-((1-(oxetan-3-yl)pyrrolidin-3-yl)oxy)phenyl)amino)-4-(cyclopropylamino)imidazo[2,1-f][1,2,4]triazine-7-carbonitrile], for which the IC50 was 0.38 nM.

For the molecule `CN1CC2CC1CN2c1cc(C#N)cc(Nc2nc(NCC(F)(F)F)c3ncc(C#N)n3n2)c1Cl` (racemic) [Example 430, (+/−)-2-((2-chloro-5-cyano-3-((1R,4R)-5-methyl-2,5-diazabicyclo[2.2.1]heptan-2-yl)phenyl)amino)-4-((2,2,2-trifluoroethyl)amino)imidazo[2,1-f][1,2,4]triazine-7-carbonitrile], the IC50 was determined as 0.97 nM.

As for `N#Cc1cc(Nc2nc(NC3CC3)c3ncc(C#N)n3n2)c(Cl)c(N2CCN3C[C@H](O)C[C@H]3C2)c1` (racemic) [Example 434, (+/−)-2-((2-chloro-5-cyano-3-((7R,8aS)-7-hydroxyhexahydropyrrolo[1,2-a]pyrazin-2(1H)-yl)phenyl)amino)-4-(cyclopropylamino)imidazo[2,1-f][1,2,4]triazine-7-carbonitrile], the IC50 was found to be 0.61 nM.

`N#Cc1cc(Nc2nc(NC3CC3)c3ncc(C#N)n3n2)c(Cl)c(N2CCN3C[C@H](O)C[C@@H]3C2)c1` (racemic) [Example 435, (+/−)-2-((2-chloro-5-cyano-3-((7R,8aR)-7-hydroxyhexahydropyrrolo[1,2-a]pyrazin-2(1H)-yl)phenyl)amino)-4-(cyclopropylamino)imidazo[2,1-f][1,2,4]triazine-7-carbonitrile]: the IC50 came to 1.13 nM.

For the molecule `CCNc1nc(Nc2cc(C#N)cc(N3CCN4C[C@H](O)C[C@H]4C3)c2Cl)nn2c(C#N)cnc12` (racemic) [Example 436, (+/−)-2-((2-chloro-5-cyano-3-((7R,8aS)-7-hydroxyhexahydropyrrolo[1,2-a]pyrazin-2(1H)-yl)phenyl)amino)-4-(ethylamino)imidazo[2,1-f][1,2,4]triazine-7-carbonitrile], the IC50 came out at 2.51 nM.

For `N#Cc1cc(Nc2nc(NC3CC3)c3ncc(C#N)n3n2)c(Cl)c(N2CCN3C[C@@H](F)C[C@H]3C2)c1` (racemic) [Example 437, (+/−)-2-((2-chloro-5-cyano-3-((7R,8aR)-7-fluorohexahydropyrrolo[1,2-a]pyrazin-2(1H)-yl)phenyl)amino)-4-(cyclopropylamino)imidazo[2,1-f][1,2,4]triazine-7-carbonitrile], the IC50 turned out to be 0.83 nM.

Turning to `N#Cc1cc(Nc2nc(NC3CC3)c3ncc(C#N)n3n2)c(Cl)c(N2CCN3CC[C@H](O)[C@H]3C2)c1` (racemic) [Example 438, (+/−)-2-((2-chloro-5-cyano-3-((8R,8aS)-8-hydroxyhexahydropyrrolo[1,2-a]pyrazin-2(1H)-yl)phenyl)amino)-4-(cyclopropylamino)imidazo[2,1-f][1,2,4]triazine-7-carbonitrile], the IC50 turned out to be 0.73 nM.

(Values after patent US9273057B2 (Bristol-Myers Squibb Company, priority 2012, dated 2016).)
